Columns and labels:
[1] = tested on: H1299 (Non-small cell lung carcinoma cell line); test: Cell proliferation index assay, Assay Protocol II (Fluofarma, flow cytometry); assay type: cell-based; conditions: Homo sapiens, NCI-H1299
Description: In a second assay to determine the inhibition of cell proliferation by a test compound, cell proliferation of the cell line of interest was measured by a cell proliferation index assay using Fluofarma (www.fluofarma.com) based technology. This assay is based on the dilution rate of a fluorescent membrane marker, which is a direct function of the number of cell divisions. Briefly, the assay is performed by loading the cells with a non-toxic fluorescent phospholipid analog before the seeding. […] Flow cytometry analysis of the fluorescent probe is performed after the loading of the cells both prior to, as well as after treatment with various concentrations of the test compound. The dilution rate of the fluorescent probe at the single cell level is directly correlated to the number of cell divisions.

PKM2, human recombinant = biological target: T1, PKM2, human recombinant (Homo sapiens, UniProt P14618); test: PKM2 enzymatic activity assay (Kinase-Glo Plus luminescence); assay type: biochemical;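 for Max activity Group: percent increase over no-compound signal after subtracting the no-PKM2 background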
T1 construct: purchased BPS 50295
Description: PKM2 performs the following enzymatic reaction, where the PKM2 substrates, PEP (phosphoenolpyruvate) and ADP, are converted to pyruvate and ATP as follows:
All of the enzymatic reactions were conducted in duplicates at room temperature for 1 hour in a 50 μL mixture containing: • PKM2 assay buffer (50 mM Imidazole, pH 7.2; 7 mM MgCl2; 50 mM KCl; 0.01% Tween; • and 0.05% BSA), 0.1 mM ADP, 0.5 mM PEP, 0.1 nM PKM2 enzyme (PKM2, human recombinant (BPS catalog number 50295)) and the indicated test compound. Fructose 1,6 biphosphat e, (FBP (Sigma)) was used as a positive control for activation at concentration of 0.5 mM. After enzymatic reactions, 50 μL of Kinase-Glo® Plus reagent (Promega kit) was added to each well and luminescence was measured using a BioTek Synergy™ 2 microplate reader.
PKM2 activity assays were performed in duplicates at each concentration. The luminescence data were analyzed using the computer software, GraphPad PRISM®. In the absence of the compound, the luminescence was defined as 0% activity. The percent activity in the presence of each compound was calculated according to the following equation:
% Activity=[(L−Lb)/(Lt−Lb)−1]×100%
where L=the luminescence in the presence of the test compound, Lb=the luminescence in the absence of PKM2, and Lt=the luminescence intensity in the absence of the test compound. The % activity values versus a series of compound concentrations were plotted using non-linear regression analysis of Sigmoidal dose-response curve generated with the equation Y=B+(T−B)/1+10^((LogEC50-X)×Hill Slope), where Y=percent activity, B=minimum percent activity, T=maximum percent activity, X=logarithm of compound and Hill Slope=slope factor or Hill coefficient. The AC50 values, shown in Table 2 were determined for the indicated test compounds as the concentration causing a half-maximal percent activity.

[2] = H1299 nude mouse xenograft study, toxicity (body weight, deaths, organ weights); assay type: in vivo, mice; conditions: Gemcitabine 120 mg/kg ip q3d × 4
Description: (§1) The animals were fed ad libitum water (reverse osmosis, 1 ppm Cl) and NIH 31 Modified and Irradiated Lab Diet® consisting of 18.0% crude protein, 5.0% crude fat, and 5.0% crude fiber. The mice were housed on irradiated Enrich-o′ Cobs™ Laboratory Animal Bedding in static microisolators on a 12-hour light cycle at 20-22° C. (68-72° F.) and 40-60% humidity.
(§2) Dosing began on D1 in four groups of mice (n=12/group in Groups 1, 3, and 4; n=6 in Group 2). XT26 and its vehicle were administered intraperitoneally (i.p.) twice daily for 28 days (b.i.d.×28), starting with the p.m. dose on D1 and ending with the a.m. dose on D29. Gemcitabine was administered i.p. once daily at three-day intervals for four doses (q3d×4). In all groups, the dosing volume of 10 ml/kg (0.2 ml/20 g mouse) was scaled to the weight of each individual animal, as measured twice weekly.
Group 1 mice received the XT26 vehicle b.i.d.×28, and served as the controls for the study. Group 2 received gemcitabine at 120 mg/kg. Group 3 was to receive XT26 at 100 mg/kg b.i.d.×28; on D21, four mice (Animals 1, 3, 4, and 5) erroneously received 200 mg/kg XT26 for their a.m. dose. Group 4 was to receive XT26 at 200 mg/kg b.i.d.×28, but dosing stopped on D9 (b.i.d.×8) because of toxicity. Group 4 dosing at 200 mg/kg resumed on D17 on a qd (once daily)×13 dosing schedule. Because of a scheduling error, the D19 dose for Group 4 mice was omitted; qd dosing occurred on Days 17, 18, and 20-28.
Animals were weighed daily on D1-5, then twice weekly until the completion of the study. The mice were observed frequently for overt signs of any adverse, treatment-related side effects.
On D10, both kidneys and the liver were harvested from each euthanized Group 4 animal. Each organ was weighed separately, fixed overnight in 10% neutral buffered formalin, and transferred to 70% ethanol.

[3] = tested on: H1299 Human Non-Small Cell Lung Carcinoma; test: H1299 human non-small cell lung carcinoma nude mouse xenograft model, tumor growth delay; assay type: in vivo, mice; conditions: for MTV (n) Day 28: median tumor volume of animals not at endpoint (n in brackets)
Description: as §1
H1299 (NCI-H1299) NSCLC cells were obtained from the American Type Culture Collection, which reports the cell line to have originated from a lymph node metastasis and to lack p53 expression. The cell line was maintained as exponentially growing cultures in RPMI-1640 medium supplemented with 10% fetal bovine serum, 2 mM glutamine, 100 units/mL penicillin G sodium, 100 μg/mL streptomycin sulfate, 25 μg/mL gentamicin, 10 mM HEPES, and 0.075% sodium bicarbonate. The tumor cells were cultured in tissue culture flasks in a humidified incubator at 37° C., in an atmosphere of 5% CO2 and 95% air.
H1299 tumor cells were harvested during log phase growth and suspended in cold PBS. Each nude mouse was inoculated subcutaneously in the right flank with 0.2 mL of the cell suspension (1×10^7 cells). The tumors were periodically calipered in two dimensions to monitor size as the mean volume approached the desired 90-130 mm^3 range. Tumor size was calculated by the following formula:
where w=width and l=length, in mm, of the tumor. Tumor weight may be estimated with the assumption that 1 mg is equivalent to 1 mm^3 of tumor volume.
Compound 13A (MW 467.51, code-named XT26) was provided as a powder stored at −20° C., and protected from light during storage and handling. Dosing suspensions, in 0.5% carboxymethyl cellulose and 1% Tween® 80 in deionized water (Vehicle), were prepared fresh for each dose, and kept at 4° C. post formulation. Gemcitabine (Gemzar®, Lilly, 38 mg/mL, Lot # A866884A) was stored at room temperature. A fresh 12 mg/mL gemcitabine dosing solution was prepared on each treatment day by diluting an aliquot of the stock solution with saline.
as §2
Group 1 mice received the XT26 vehicle b.i.d.×28, and served as the controls for the study. Group 2 received gemcitabine at 120 mg/kg. Group 3 was to receive XT26 at 100 mg/kg b.i.d.×28; on D21, four mice (Animals 1, 3, 4, and 5) erroneously received 200 mg/kg XT26 for their a.m. dose. […] Group 4 dosing at 200 mg/kg resumed on D17 on a qd (once daily)×13 dosing schedule. Because of a scheduling error, the D19 dose for Group 4 mice was omitted; qd dosing occurred on Days 17, 18, and 20-28.
Tumors were calipered twice weekly for the duration of the study, and each animal was euthanized when its neoplasm reached the predetermined endpoint volume (1200 mm^3) or at the end of the study, whichever came first. Animals that exited the study for tumor growth were documented as euthanized for tumor progression (TP), with the date of euthanasia. The time to endpoint (TTE) for each mouse was calculated by the following equation: […]
where TTE is expressed in days, endpoint volume is expressed in mm^3, b is the intercept, and m is the slope of the line obtained by linear regression of a log-transformed tumor growth data set.

[4] = Gemcitabine 120 mg/kg ip q3d × 4
[5] = Group 1 vs 2: Gemcitabine ip q3d × 4, 120 mg/kg

T1 sequence (P14618 whole entry): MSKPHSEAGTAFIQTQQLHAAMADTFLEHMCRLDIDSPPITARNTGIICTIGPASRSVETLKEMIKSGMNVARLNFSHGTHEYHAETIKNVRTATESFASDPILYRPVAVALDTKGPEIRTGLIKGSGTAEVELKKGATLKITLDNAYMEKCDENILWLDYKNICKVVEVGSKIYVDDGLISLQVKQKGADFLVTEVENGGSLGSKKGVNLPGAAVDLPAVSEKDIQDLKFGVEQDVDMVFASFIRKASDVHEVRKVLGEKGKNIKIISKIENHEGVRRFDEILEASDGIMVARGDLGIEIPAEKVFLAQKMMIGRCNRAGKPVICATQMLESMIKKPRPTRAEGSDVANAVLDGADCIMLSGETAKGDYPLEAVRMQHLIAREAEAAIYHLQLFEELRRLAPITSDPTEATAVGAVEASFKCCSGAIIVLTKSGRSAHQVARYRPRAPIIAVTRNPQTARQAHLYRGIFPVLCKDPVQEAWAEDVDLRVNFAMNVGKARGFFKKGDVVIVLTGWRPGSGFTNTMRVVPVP

`COc1ccc(C2CC(c3ccc(NS(=O)(=O)c4c(F)cccc4F)cc3)=NN2C(C)=O)cc1` (stereo not drawn) [Compound 61A, N-(4-(1-acetyl-5-(4-methoxyphenyl)-4,5-dihydro-1H-pyrazol-3-yl)phenyl)-2,6-difluorobenzenesulfonamide] showed an IC50 [1] of less than 40 µM.
Compound `COc1ccc(C2CC(c3ccc(NS(=O)(=O)c4ccc(F)cc4)cc3)=NN2C(C)=O)cc1` (racemic) [Compound 6A, N-(4-(1-acetyl-5-(4-methoxyphenyl)-4,5-dihydro-1H-pyrazol-3-yl)phenyl)-4-fluorobenzenesulfonamide] has an AC50 (PKM2, human recombinant; 0.1 nM PKM2, 0.1 mM ADP, 0.5 mM PEP, 1 hour, room temperature, read-out: AC50 group) of no more than 1 µM, an Emax (PKM2, human recombinant; 1 h, maximum percent activity, luminescence without compound = 0% activity, read-out: Max activity Group) of 130 to 200% and an IC50 [1] of less than 40 µM.
For `Nc1ccn([C@@H]2O[C@H](CO)[C@@H](O)C2(F)F)c(=O)n1` [Gemcitabine, gemcitabine, reference compound], the “Deaths NTR” value ([2]; non-treatment-related deaths) was 0, the “Deaths TR” value ([2]; treatment-related deaths) was 0 and the “% TGD” value [3, 4] was 50%. For the same compound, the “Regressions CR” value [3, 4] was 0, the “Regressions PR” value [3, 4] was 0 and the “Regressions TFS” value [3, 4] was 0. For the same compound, the “Median TTE” value ([3]; Gemcitabine 120 mg/kg ip q3d × 4, endpoint 1200 mm^3, 28-day study) was 28.0 days, the “MTV (n) Day 28” value [3, 4] was 600 (5) mm^3 and the “MTV (n) Day 28” value ([3]; Gemcitabine 120 mg/kg ip q3d × 4, listed as gemcitabine) was 600 mm^3. For the same compound, the “T − C” value ([3]; Gemcitabine 120 mg/kg ip q3d × 4, vs Group 1 vehicle) was 9.3 days, the “Median survival” value ([3]; Gemcitabine ip q3d × 4, 120 mg/kg (Column B = treated group)) was “Undefined” and the “Are the survival curves sig different?” value [3, 5] was “Yes”. The “Hazard Ratio” value [3, 5] was 11.48 and the “response of tumor model to therapy” value ([3]; standard 120 mg/kg gemcitabine therapy) was “responded moderately well”.
